Measurements from paper PMC9032381 (Diagnostics, 2022).
“And” between values parts separate entries of the source, which are not always exact repeats. Equal values may be shown once. Read-outs that look alike come from different tables or passages of the source. One block for each compound: values may come before it.

[1] = measured, listed as 18F-Afatinib

- Active metabolite exposure (cited): 10 % AUC
SMILES: C#Cc1cccc(Nc2ncnc3cc(OCCO)c(OCCOC)cc23)c1 [OSI413]

SMILES: CN(C)C/C=C/C(=O)Nc1cc2c(Nc3ccc([18F])c(Cl)c3)ncnc2cc1OC1CCOC1 (stereo not drawn) [^18F-afatinib]
- SUV Aorta (blood SUV) (measured): 0.5 (±0.1)
- SUV Brain (measured): 0.04 (0.01)
- SUV Kidney (measured): 3.5 (0.7)
- SUV Liver (measured): 11.8 (2.2)
- SUV Lung (measured): 1.3 (0.5)
- SUV Spleen (measured): 6.8 (1.0)
- SUV Vertebra (measured): 2.4 (0.8)
- SUV-AUC Liver (measured): 731.5 (87.4) MBq/mL and seconds
- SUV-AUC Lung (measured): 98.5 (16.5) MBq/mL and seconds
- TBR Brain (measured): 0.08 (0.03)
- TBR Kidney (measured): 6.9 (1.8)
- TBR Liver (measured): 23.3 (6.2)
- TBR Lung (measured): 2.5 (1.2)
- TBR Spleen (measured): 13.2 (2.3)
- TBR Vertebra (measured): 4.8 (2.0)
- TBR-AUC Liver (measured): 747.7 (426.3) TBR and seconds
- TBR-AUC Lung (measured): 90.9 (37.9) TBR and seconds
- parent fraction (measured): 70% and 35%
- SUV Aorta (blood SUV) [1]: 0.5 (0.1)
- SUV Tumor [1]: 1.8 (1.3) and 1.6 (0.1)
- TBR Tumor [1]: 3.6 (2.4) and 3.3 (1.0)
- TBR-AUC Tumor [1]: 150.7 (9.1) TBR and seconds and 113.0 (44.8) TBR

- AUC dose normalized (cited): 23 µM·h
- Active metabolites (cited): None
- Ka (cited): 0.252 h⁻¹
- Strength of basicity (cited): Strong
- Target Ctrough (cited): 50 nM
- Time to Css (cited): 8 days
SMILES: CN(C)C/C=C/C(=O)Nc1cc2c(Nc3ccc(F)c(Cl)c3)ncnc2cc1O[C@H]1CCOC1 [Afatinib, reference compound]

- AUC dose normalized (cited): 207 µM·h
- Cmin at Css (cited): 2567 nM
- Ka (cited): 0.949 h⁻¹
- Metabolism Liver (cited): ~98%
- Renal extraction, unchanged (cited): < 2%
- Strength of basicity (cited): Weak
- Target Ctrough (cited): 1271 nM
- Time to Css (cited): 7 to 8 days
SMILES: C#Cc1cccc(Nc2ncnc3cc(OCCOC)c(OCCOC)cc23)c1 [Erlotinib, reference compound]

- Active metabolite exposure (cited): 10 % AUC
SMILES: C=CC(=O)Nc1cc(Nc2nccc(-c3c[nH]c4ccccc34)n2)c(OC)cc1N(C)CCN(C)C [AZ5104]
- Active metabolite potency relative to osimertinib (OSI) (cited): higher

SMILES: C#Cc1cccc(Nc2ncnc3cc(OCCOC)c(OCCO)cc23)c1 [OSI-420]
- Active metabolite exposure (cited): 10 % AUC

- parent fraction, initial decline (drop to) (measured): 50%
- parent fraction, plateau (measured): 28–29%
SMILES: C=CC(=O)Nc1cc(Nc2nccc(-c3cn([11CH3])c4ccccc34)n2)c(OC)cc1N(C)CCN(C)C [^11C-osimertinib]

- AUC dose normalized (cited): 75 µM·h
- Cmin at Css (cited): 417 nM
- Metabolism Liver (cited): ~99%
- Renal extraction, unchanged (cited): 2%
- Strength of basicity (cited): Strong
- Target Ctrough (cited): 332 nM
- Time to Css (cited): 15 days
SMILES: C=CC(=O)Nc1cc(Nc2nccc(-c3cn(C)c4ccccc34)n2)c(OC)cc1N(C)CCN(C)C [Osimertinib, reference compound]

- Active metabolite exposure (cited): 10 % AUC
SMILES: C=CC(=O)Nc1cc(Nc2nccc(-c3cn(C)c4ccccc34)n2)c(OC)cc1N(C)CCNC [AZ7550]
- Active metabolite potency relative to osimertinib (OSI) (cited): as OSI
